The values below are quoted from earlier work in PMC12390126, “Human Skin Permeation of Ethoxy- and Propoxypropanol Commonly Found in Water-Based Products” (Toxics, 2025).

Read-outs that look alike come from different tables or passages of the source.

For series [1] the following is noted: dermatomed 0.8 mm, 32 °C, 24 h, cited from earlier work; for J ± SD / Kp ± SD: 109.6 (PGME) or 100.0 (PGBE) mg/cm^2.
For series [2] the following is noted: frozen full thickness skin, 32 °C, 4 h, cited from earlier work; for J ± SD / Kp ± SD: 56.1-61.7 mg/cm^2.
Details of series [3]: method as in PMID 15251185. The settings on record: frozen full thickness skin (1 mm), 32 °C, 57.8 mg/cm^2, 8 h; cited from earlier work.

Take `CCCCOCC(C)O` (stereo not drawn) [PGBE, propylene glycol butyl ether]: in series [1] (fresh skin), the “J ± SD” value was 7.93 ± 1.57 µg/cm^2/h, the “Kp ± SD” value is reported as 0.009 ± 0.002 10^−3 cm/h and the “Tlag ± SD” value is 0.89 ± 0.13 h. In addition, in series [1] (frozen skin), the “J ± SD” value is on record as 44.1 ± 16.2 µg/cm^2/h, the “Kp ± SD” value is recorded as 0.05 ± 0.02 10^−3 cm/h and the “Tlag ± SD” value is 0.86 ± 0.23 h. In series [2], the “J ± SD” value was 17 ± 5 µg/cm^2/h, the “Kp ± SD” value was 0.02 ± 0.005 10^−3 cm/h and the “Tlag ± SD” value is 0.62 ± 0.03 h.

Take `COCC(C)OC(C)=O` (stereo not drawn) [PGMEac, propylene glycol methyl ether acetate]: in series [2], the “J ± SD” value is listed as 59 ± 44 µg/cm^2/h, the “Kp ± SD” value is on record as 0.06 ± 0.006 10^−3 cm/h and the “Tlag ± SD” value is 0.5 ± 0.05 h.

Turning to dipropylene glycol methyl ether [DPGME], in series [3], the “J ± SD” value is given as 106.3 ± 37.6 µg/cm^2/h, the “Kp ± SD” value is given as 0.11 ± 0.04 10^−3 cm/h and the “Tlag ± SD” value was 1.51 ± 0.48 h.
